In one test the test system is AMPA receptors. The test can be described thus: Capillary electrophoresis-patch clamp detection, kainate pre-activated whole-cell biosensor. The format is cell-based. To be noted: 100 μM KA in capillary; holding potential −70 mV; interneurons from rat olfactory bulb. The protocol: Separation of mixtures of glutamate receptor antagonists were performed using cell-based biosensor-compatible buffers. A cell-based biosensor-compatible buffer is a buffer which effectively keeps the cell-based biosensor in a functional and viable condition during the course of the experiment or the analysis procedure. slightly modified standard HEPES-saline buffer containing 140 mM NaCl, 5 mM KCl, 1 mM MgCl2, 1 mM CaCl2, 10 mM glucose and 10 mM HEPES (pH 7.4, NaOH) was used as extracellular and capillary buffer in examples 1 and 2 except in the separation of Mg^2+ where MgCl2 were omitted. As described in the examples, the preferred agonist were only—included in the capillary solution. […]
(§1) The patch clamp detection was performed in the whole-cell configuration as described by Hamill, et al. (see Hamill, O. P., et al, Pflug. Arch. 391:85, 1981). […] Patch pipettes were fabricated from thick-walled borosilicate glass (code no GC150-10, Clark Electromedical Instruments, Pangboume, Reading, UK). […]
(§2) The signals were recorded with a patch clamp amplifier (Model List L/M EPC-7, List-Electronic, Darmstadt, Germany), digitized (20 kHz, PCM 2 A/D VCR adapter, Medical Systems Corp., NY, USA), and stored on videotape. […]

Test [1] deals with N-methyl-D-aspartate receptor. The test can be described thus: Capillary electrophoresis-patch clamp detection, NMDA/glycine pre-activated whole-cell biosensor. The format is cell-based, rat. As for the experimental part: Separation of mixtures of glutamate receptor antagonists were performed using cell-based biosensor-compatible buffers. A cell-based biosensor-compatible buffer is a buffer which effectively keeps the cell-based biosensor in a functional and viable condition during the course of the experiment or the analysis procedure. slightly modified standard HEPES-saline buffer containing 140 mM NaCl, 5 mM KCl, 1 mM MgCl2, 1 mM CaCl2, 10 mM glucose and 10 mM HEPES (pH 7.4, NaOH) was used as extracellular and capillary buffer in examples 1 and 2 except in the separation of Mg^2+ where MgCl2 were omitted. As described in the examples, the preferred agonist were only—included in the capillary solution.
The cells used were interneurons from rat olfactory bulb acutely isolated according to the procedures described by Jacobson et al. (see Jacobson, I., Neurosci. Res. Comm. 8:11, 1991, and Jacobson, I., et al., Neurosci. Res. Comm. 10:177, 1992).
Newborn or adult rats (10-200 g) were anaesthetized with halothane (ISC Chemicals Ltd., Avonmouth, England) and decapitated. The olfactory bulbs were dissected and sliced into four pieces and placed in an incubation chamber. The chamber contained proteases from Aspergillus oryzae (2.5 mg/ml) which were dissolved in pre-warmed (32° C.) HEPES-saline buffer (see above). After 25-30 min., the slices were washed with the same buffer solution for 20 min. The solutions were constantly perfused with 95% O2 and 5% CO2 during both the enzymatic treatment arid the washing. […]
as §1, §2

The mark [2] stands for this setting: voltage ramp −80 to +40 mV, NMDA receptor response attenuated by separated Mg^2+.

For `N#Cc1cc2c(cc1[N+](=O)[O-])=NC(=O)C(=O)N=2` [CNQX, 6-cyano-7-nitroquinoxaline-2,3-dione], the “effect on KA-activated current responses” value in the test with AMPA receptors is recorded as “transient attenuations of KA-activated current responses”.

`O=C(O)c1nc2cc(Cl)c(Cl)cc2nc1O` [DCQXC, 6,7-dichloro-3-hydroxy-2-quinoxaline-carboxylic acid]: the “effect on KA-activated current responses” value in the test on AMPA receptors is reported as “transient attenuations of KA-activated current responses”.

Take `[Mg+2]` [Mg^2+]: the “effect on N-methyl-D-aspartate-activated current responses” value in test [1] (Mg^2+ 2 mM injected, 200 μM NMDA and 20 μM glycine in capillary, holding potential −70 mV, interneurons from rat olfactory bulb) is on record as “transient Gaussian-distributed attenuation of N-methyl-D-aspartate-activated current responses”. In test [1] (setting [2]), the “current-to-voltage relationship: inward currents at membrane resting potentials” value is reported as “blockade of inward currents at membrane resting potentials” and the “current-to-voltage relationship: outward currents at positive potentials” value is given as “unaltered outward currents at positive potentials”.

(Values after US6455303B1, “Detection of biologically active molecules by use of pre-activated cell-based biosensors in liquid-based separation systems” (Cellectricon AB, priority 1997, dated 2002).)
